Where no end group is shown, it is not given here.
Columns and labels:
[1] = test system: anti-β2GPI G-3 mAb; experiment: Cyto-ELISA: inhibition of G-3 mAb binding to HUVEC; set-up: species or system human; settings: peptide concentration of 10 μM
Protocol: (§1) FIGS. 2A–2C are graphs showing inhibition of the anti-β2GPI ILA-1, ILA-3 and G-3 mAbs binding to human umbilical vein endothelial cells (HUVEC) by competition assays using increasing concentrations of the inhibitory monomer peptides A, B and C, respectively, and of unrelated peptide D as control. The percent of inhibition was calculated as in FIG. 1 above. Each point represents mean±SD of three different experiments.
(§2) (f) Anti-β2GPI mAb binding to endothelial cells in the presence of the inhibitory peptides. Human umbilical vein endothelial cells (HUVEC) were isolated as previously described and cultured under standard conditions (Jaffe et al., 1973). Briefly, umbilical cords were treated with collagenase (0.2% from Clostridium histolyticum, Boehringer) for 20 min at 37° C., cells were cultured in medium 199 with 20% FCS, 10 μg/ml growth supplement, 100 μg/ml heparin and antibiotics (streptomycin, penicillin), and used at passages 1–2 for plating onto gelatin-coated 96-well plates. Cyto-ELISA was performed as detailed before (Jaffe et al., 1973). Briefly, mAbs at different concentrations were added to HUVEC confluent wells, previously coated with 10 μg/ml β2GPI for 2 hours and fixed with 0.1% glutaraldehyde. The bound mAb was detected by further 1-hour incubation with alkaline phosphatase-conjugated goat anti-human IgM. […]

[2] = test system: experimental APS induced by anti-β2GPI mAb G-3; experiment: Murine experimental APS induced by G-3 mAb; format: in vivo, BALB/c mice; settings: mice infused with G-3 mAb, peptide 40 μg/mouse daily 3 days, day 15
Protocol: (i) Mice: Female BALB/c mice, aged 10–12 weeks, were purchased from Tel-Aviv University Animal House, Israel. The females were caged overnight with BALB/c males and examined for vaginal plug next morning. The presence of the plug was considered as day 0 of pregnancy in all the studied groups. (j) Induction of murine experimental APS. Mice were infused intravenously with 20 μg of each one of the anti-β2GPI ILA-1, ILA-3, and G-3 mAbs at day 0 (the day at which a vaginal plug was observed following mating) (Blank et al., 1991), 6 hours later the mice received daily 40 μg/mouse of the tested peptides during 3 days. The mice were bled and sacrificed on day 15 of pregnancy. Fetal resorptions, activated partial thromboplastin time and platelet counts (markers of the APS-equivalent in mice) were determined as described (Blank et al., 1991). Significant fetal loss, thrombocytopenia and prolonged activated thromboplastin time (aPTT) were induced in naive mice following passive intravenous administration of the three anti-β2GPI mAbs ILA-1, ILA-3 and G-3, as described in Materials and Methods, section (j). The clinical manifestations of the experimental APS were prevented by infusion of the specific peptide monomers A, B, C which were delivered to the mice with the corresponding pathogenic anti-β2GPI mAbs, as shown in Table 2. […] Similarly, mice which were preinfused with control IgM and received a cocktail of the peptide monomers (A+B+C), were not affected.

[3] = test system: anti-β2GPI ILA-3 mAb; experiment: Cyto-ELISA: inhibition of ILA-3 mAb binding to HUVEC; set-up: species or system human; settings: peptide concentration of 10 μM
Protocol: as §1, §2

[4] = test system: anti-β2GPI ILA-3 mAb; experiment: ELISA for adhesion molecule expression on HUVEC exposed to ILA-3 mAb; format: cell-based, human
Protocol: (§3) FIG. 4 is a bar graph showing inhibition of expression of the adhesion molecules E-selectin, intracellular adhesion molecule-1 (ICAM-1) and vascular cell adhesion molecule-1 (VCAM-1) on HUVEC by specific inhibitory monomer peptides A, B, or C. To the HUVEC incubated with β2GPI, were added anti-β2GPI ILA-1, ILA-3 and G-3 mAbs with and without preincubation (2 h) with the peptide monomers A, B and C, respectively, and control peptide D. The expression of adhesion molecules was probed by ELISA employing biotinylated anti-human ICAM-1, VCAM-1, E-selectin and streptavidin-alkaline phosphatase. Each point represents mean±SD of three different experiments.
(§4) (h) ELISA for detecting the expression of adhesion molecules following exposure to anti-β2GPI mAbs and the inhibitory peptides. HUVEC cells grown in 96-well plates and preincubated with mAbs, with and without different concentrations of specific and irrelevant peptides (100 ug/ml), were washed, fixed with 0.1% glutaraldehyde, and then treated with PBS containing 0.2% Triton-X100 in order to permeabilize the cell membrane (Adamson et al., 1996). The plates were blocked with 3% BSA and incubated with biotinylated mouse anti-human E-selectin, anti-human intracellular adhesion molecule-1 (ICAM-1) or anti-human vascular cell adhesion molecule-1 (VCAM-1) (PharMingen, Torreyana Road, San Diego, Calif.) 1 μg/ml for 1 hour. The cells were then exposed to streptavidin alkaline phosphatase (Jackson) and appropriate substrate.
(§5) The enhancement of monocytes to endothelial cells followed by increase in the amount of adhesion molecules expression, as a result of exposure of endothelial cells to anti-β2GPI mAbs, has been observed previously at the laboratory of one of the present inventors. The effect of each specific peptide monomer A, B, C on the expression of the adhesion molecules E-selectin, ICAM-1 and VCAM-1 on HUVEC caused by the corresponding anti-β2GPI mAb, was examined according to Materials and Methods, section (h). […]

[5] = test system: anti-β2GPI ILA-1 mAb; experiment: Cyto-ELISA: inhibition of ILA-1 mAb binding to HUVEC; set-up: species or system human; settings: peptide concentration of 10 μM
Protocol: as §1, §2

[6] = test system: anti-β2GPI ILA-1 mAb; experiment: ELISA for adhesion molecule expression on HUVEC exposed to ILA-1 mAb; format: cell-based, human; settings: ILA-1 mAb preincubated with peptide
Protocol: as §3, §4, §5

With CATLRVYKGG [Peptide C] the “inhibition of G-3 mAb binding to HUVEC” value [1] was 92%, the “% Fetal loss (Resorbed fetuses/Total fetuses)” value [2] was 7 ± 2% and the Platelet count [2] was 1242 cells/mm^3 × 10^−3. The “aPTT (activated partial thromboplastin time)” value [2] was 31 ± 4 s and the “aPTT (activated partial thromboplastin time)” value ([2]; listed as peptide C) was 31 ± 4 s.
In the case of KDKATFGTHDG [Peptide B], the “inhibition of ILA-3 mAb binding to HUVEC” value [3] is reported as 72%, the “ICAM-1 expression by HUVEC” value ([4]; HUVEC exposed to ILA-3 mAb) is reported as “abrogated” and the “VCAM-1 expression by HUVEC” value ([4]; HUVEC exposed to ILA-3 mAb) is reported as “abrogated”. The “E-selectin expression by HUVEC” value ([4]; ILA-3 mAb preincubated with peptide) was 0.211±0.064 O.D.
For NTLKTPRVGG [Peptide A], the “inhibition of ILA-1 mAb binding to HUVEC” value [5] was 95%, the “E-selectin expression by HUVEC” value [6] was 0.239±0.064 O.D and the “ICAM-1 expression by HUVEC” value [6] was 0.204±0.072 O.D. For the same sequence, the “VCAM-1 expression by HUVEC” value [6] was 0.252±0.071 O.D.

Reference: patent publication US7053178B2, “Synthetic peptides and kits for diagnosis of anti-phospholipid syndrome” (Yeda Research Development Co., LTD, priority 1998, dated 2006)
